Test results: PubChem BioAssay AID192 (DTP/NCI, 2004)
“And” between values parts separate entries of the source, which are not always exact repeats. Equal values may be shown once. Toxic doses and inconclusive results are not listed.

Tested on: BDF1 mice, B16 melanoma ip, median survival T/C
Experiment: NCI In Vivo Anticancer Drug Screen. Data for tumor model B16 Melanoma (intraperitoneal) in B6D2F1 (BDF1) mice
Settings: endpoint: median survival time, higher = longer survival
Description: The antitumor activity of compounds was measured in mice bearing transplantable tumors. Survival or tumor size were measured and the results are expressed as the measurement made in the treated group (T) divided by the measurement made in the vehicle treated control group (C). The tumor model used in this assay is B16 Melanoma (intraperitoneal) in B6D2F1 (BDF1) mice

[1] = dose: 6.25 mg/kg/injection, schedule: Q01DX009 (ip), vehicle: saline with Tween-80
[2] = dose: 12.5 mg/kg/injection, schedule: Q01DX009 (ip), vehicle: saline with Tween-80
[3] = dose: 25.0 mg/kg/injection, schedule: Q01DX009 (ip), vehicle: saline with Tween-80
[4] = dose: 100.0 mg/kg/injection, schedule: Q01DX009 (ip), vehicle: Klucel (hydroxypropylcellulose) (HPC)
[5] = dose: 200.0 mg/kg/injection, schedule: Q01DX009 (ip), vehicle: Klucel (hydroxypropylcellulose) (HPC)
[6] = dose: 2.5 mg/kg/injection, schedule: Q01DX009 (ip), vehicle: saline with Tween-80
[7] = dose: 10.0 mg/kg/injection, schedule: Q01DX009 (ip), vehicle: saline with Tween-80

SMILES: CC1(C)OC2C(COC(=O)c3ccc([N+](=O)[O-])cc3)OC(NC(=O)N(CCCl)N=O)C2O1 (configuration not stated)
- T/C [1]: 158 % of control
- T/C [2]: 215 % of control
- T/C [3]: 204 % of control and 283 % of control
- T/C (dose: 50.0 mg/kg/injection, schedule: Q01DX009 (ip), vehicle: saline with Tween-80): 206 % of control

SMILES: O=S(=O)(O)CNc1cc(Cl)cc(Cl)c1
- T/C [4]: 108 % of control
- T/C [5]: 94 % of control

SMILES: Nc1cc2c(c[n+](CCCCCCCC[n+]3cc4c5ccccc5c(N)cc4c4ccccc43)c3ccccc23)c2ccccc12
- T/C (dose: 0.78 mg/kg/injection, schedule: Q01DX009 (ip), vehicle: distilled water + Tween-80): 120 % of control
- T/C (dose: 1.25 mg/kg/injection, schedule: Q01DX009 (ip), vehicle: saline with Tween-80): 118 % of control
- T/C (dose: 1.56 mg/kg/injection, schedule: Q04DX003 (ip), vehicle: distilled water + Tween-80): 114 % of control
- T/C [6]: 123 % of control
- T/C (dose: 2.59 mg/kg/injection, schedule: Q01DX009 (ip), vehicle: distilled water + Tween-80): 156 % of control
- T/C (dose: 3.12 mg/kg/injection, schedule: Q04DX003 (ip), vehicle: distilled water + Tween-80): 108 % of control
- T/C (dose: 4.32 mg/kg/injection, schedule: Q01DX009 (ip), vehicle: distilled water + Tween-80): 167 % of control
- T/C (dose: 6.25 mg/kg/injection, schedule: Q01DX009 (ip), vehicle: distilled water + Tween-80): 162 % of control
- T/C (dose: 7.2 mg/kg/injection, schedule: Q01DX009 (ip), vehicle: distilled water + Tween-80): 180 % of control
- T/C [7]: 166 % of control
- T/C (dose: 12.0 mg/kg/injection, schedule: Q01DX009 (ip), vehicle: distilled water + Tween-80): 182 % of control
- T/C (dose: 12.5 mg/kg/injection, schedule: Q01DX009 (ip), vehicle: distilled water + Tween-80): 88 % of control
- T/C (dose: 20.0 mg/kg/injection, schedule: Q01DX009 (ip), vehicle: saline with Tween-80): 160 % of control
- T/C (dose: 25.0 mg/kg/injection, schedule: Q04DX003 (ip), vehicle: distilled water + Tween-80): 106 % of control

SMILES: CN1C(=O)CCS(=O)(=O)C1c1ccc(Cl)c(Cl)c1 (configuration not stated)
- T/C (dose: 0.39 mg/kg/injection, schedule: Q01DX009 (ip), vehicle: Klucel (hydroxypropylcellulose) (HPC)): 103 % of control
- T/C (dose: 0.78 mg/kg/injection, schedule: Q01DX009 (ip), vehicle: Klucel (hydroxypropylcellulose) (HPC)): 87 % of control
- T/C (dose: 1.56 mg/kg/injection, schedule: Q01DX009 (ip), vehicle: Klucel (hydroxypropylcellulose) (HPC)): 109 % of control and 116 % of control
- T/C (dose: 3.12 mg/kg/injection, schedule: Q01DX009 (ip), vehicle: Klucel (hydroxypropylcellulose) (HPC)): 111 % of control and 118 % of control
- T/C (dose: 6.25 mg/kg/injection, schedule: Q01DX009 (ip), vehicle: Klucel (hydroxypropylcellulose) (HPC)): 103 % of control and 111 % of control
- T/C (dose: 12.5 mg/kg/injection, schedule: Q01DX009 (ip), vehicle: Klucel (hydroxypropylcellulose) (HPC)): 97 % of control
- T/C (dose: 50.0 mg/kg/injection, schedule: Q01DX009 (ip), vehicle: Klucel (hydroxypropylcellulose) (HPC)): 90 % of control

SMILES: Oc1cc2c3c(c1)c1cc4c(cc1c[n+]3CC2)OCO4
- T/C (dose: 1.56 mg/kg/injection, schedule: Q01DX009 (ip), vehicle: distilled water + Tween-80): 117 % of control
- T/C (dose: 3.12 mg/kg/injection, schedule: Q01DX009 (ip), vehicle: water): 115 % of control
- T/C (dose: 3.13 mg/kg/injection, schedule: Q01DX009 (ip), vehicle: distilled water + Tween-80): 113 % of control
- T/C (dose: 6.25 mg/kg/injection, schedule: Q01DX009 (ip), vehicle: water): 118 % of control
- T/C (dose: 25.0 mg/kg/injection, schedule: Q01DX009 (ip), vehicle: distilled water + Tween-80): 119 % of control
- T/C (dose: 50.0 mg/kg/injection, schedule: Q01DX009 (ip), vehicle: water): 124 % of control

SMILES: CNC(=O)ON(C(C)=O)C(=O)NC
- T/C (dose: 12.5 mg/kg/injection, schedule: Q01DX009 (ip), vehicle: saline): 87 % of control
- T/C (dose: 25.0 mg/kg/injection, schedule: Q01DX009 (ip), vehicle: saline): 88 % of control

SMILES: CCCCOc1ccc(NC(N)=Nc2ccc(Cl)cc2)cc1
- T/C (dose: 3.12 mg/kg/injection, schedule: Q01DX009 (ip), vehicle: saline with Tween-80): 95 % of control
- T/C [1]: 88 % of control
- T/C [2]: 90 % of control
- T/C [3]: 86 % of control

SMILES: CCCCCCCCCCCCCCNC(=O)CCl
- T/C [4]: 113 % of control
- T/C [5]: 106 % of control

SMILES: N=C(N)SCc1cccc2c(=O)cc(-c3ccccc3)oc12
- T/C (dose: 50.0 mg/kg/injection, schedule: Q01DX009 (ip), vehicle: saline): 101 % of control
- T/C (dose: 100.0 mg/kg/injection, schedule: Q01DX009 (ip), vehicle: saline): 111 % of control
- T/C (dose: 200.0 mg/kg/injection, schedule: Q01DX009 (ip), vehicle: saline): 86 % of control

SMILES: [Cu+2].[NH-]C1(C(=O)O)CCCC1.[NH-]C1(C(=O)O)CCCC1
- T/C [6]: 93 % of control
- T/C (dose: 5.0 mg/kg/injection, schedule: Q01DX009 (ip), vehicle: saline with Tween-80): 93 % of control
- T/C [7]: 93 % of control
